Test results published in PMC5034536, “Molecular insights into substrate recognition and catalytic mechanism of the chaperone and FKBP peptidyl-prolyl isomerase SlyD” (BMC Biology, 2016).
Where “and” joins values, the source holds several entries; their conditions need not be identical. Identical values can stand only once.

Tests used:
TtSlyDFL A78G = TtSlyDFL A78G (Thermus thermophilus, UniProt Q5SLE7, A78G); assay: Tetrapeptide activity by NMR lineshape analysis
Experimental: (§3) NMR samples contained TtSlyD in 20 mM HEPES, 100 mM NaCl, pH 7.5, and 10 % (v/v) D2O. All experiments were performed at a static magnetic field strength of 14.1 T and a temperature of 25 °C. […] Lineshape analysis was performed using MATLAB.
(§4) For tetrapeptide activity studies, one-dimensional ^1H spectra of 500 μM suc-ALPF-pNA tetrapeptide containing 2 μM, 4 μM, or 6 μM of TtSlyD were recorded for the different mutants [59].

TtSlyDFL F128A = TtSlyDFL F128A (Thermus thermophilus, UniProt Q5SLE7, F128A); assay: Tetrapeptide activity by NMR lineshape analysis
Experimental: (§5) NMR samples contained TtSlyD in 20 mM HEPES, 100 mM NaCl, pH 7.5, and 10 % (v/v) D2O. All experiments were performed at a static magnetic field strength of 14.1 T and a temperature of 25 °C. The spectra were processed with NMRpipe [57] and analyzed with NMRview [58], except one-dimensional spectra, which were processed and analyzed using VNMRJ (Agilent, Inc.). Lineshape analysis was performed using MATLAB.
as §4

human FKBP12 = human FKBP12 with suc-ALPF-pNA as a substrate; ref U Weininger, unpublished data; cited from earlier work
TtSlyDFL N35A = TtSlyDFL N35A (Thermus thermophilus, UniProt Q5SLE7, N35A); assay: Tetrapeptide activity by NMR lineshape analysis
Experimental: (§6) Although the kcat/KM and KD values refer to different substrates, this analysis should provide valuable insights into the relative impact of a given mutation on binding and turnover.
as §3, §4

TtSlyDFL I37G = TtSlyDFL I37G (Thermus thermophilus, UniProt Q5SLE7, I37G); assay: Tetrapeptide activity by NMR lineshape analysis
Experimental: as §6, §3, §4

TtSlyDFL D23A = TtSlyDFL D23A (Thermus thermophilus, UniProt Q5SLE7, D23A); assay: Tetrapeptide activity by NMR lineshape analysis
Experimental: as §6, §3, §4

TtSlyDFL M96A = TtSlyDFL M96A (Thermus thermophilus, UniProt Q5SLE7, M96A); assay: Tetrapeptide activity by NMR lineshape analysis
Experimental: as §3, §4

E. coli SlyD = settings: estimated, E. coli SlyD at high salt concentration; cited from earlier work
TtSlyDFL Y63A = TtSlyDFL Y63A (Thermus thermophilus, UniProt Q5SLE7, Y63A); assay: Tetrapeptide activity by NMR lineshape analysis
Experimental: as §3, §4

TtSlyDFL Q94A = TtSlyDFL Q94A (Thermus thermophilus, UniProt Q5SLE7, Q94A); assay: Tetrapeptide activity by NMR lineshape analysis
Experimental: as §3, §4

TtSlyDΔIF = assay: Tetrapeptide cis/trans isomerization activity by NMR lineshape analysis; format: biochemical, Thermus thermophilus
Source text: (§1) In order to accurately measure the catalytic activity of TtSlyDFL on peptidyl-prolyl cis/trans isomerization, we carried out Michaelis-Menten studies under equilibrium conditions using NMR lineshape analysis, which is capable of monitoring the rate of exchange between cis and trans conformations of the peptide substrate. Initially, we benchmarked the method against literature data using the standard suc-ALPF-pNA tetrapeptide (Fig. 7a). […] For the TtSlyDΔIF construct, we obtained kcat/KM = 0.85 ± 0.01 μM^−1s^−1, showing a minor influence of the IF domain.
(§2) Lineshape analysis was performed using MATLAB.

TtSlyDFL = assay: as above; format: biochemical, Thermus thermophilus
Source text: as §1, §2

TtSlyDFL H119A = TtSlyDFL H119A (Thermus thermophilus, UniProt Q5SLE7, H119A); assay: Tetrapeptide activity by NMR lineshape analysis
Experimental: as §5, §4

TtSlyDFL Y63F = TtSlyDFL Y63F (Thermus thermophilus, UniProt Q5SLE7, Y63F); assay: Tetrapeptide activity by NMR lineshape analysis
Experimental: as §6, §3, §4

TtSlyDFL Y13F = TtSlyDFL Y13F (Thermus thermophilus, UniProt Q5SLE7, Y13F); assay: Tetrapeptide activity by NMR lineshape analysis
Experimental: as §6, §3, §4

TtSlyDFL Y92A = TtSlyDFL Y92A (Thermus thermophilus, UniProt Q5SLE7, Y92A); assay: Tetrapeptide activity by NMR lineshape analysis
Experimental: as §3, §4

[1] = substrate 500 μM suc-ALPF-pNA, NMR lineshape analysis, 25 °C
[2] = suc-ALPF-pNA, relative to wild-type TtSlyDFL

TtSlyDFL A78G, sequence (Q5SLE7 entry or part of it A78G): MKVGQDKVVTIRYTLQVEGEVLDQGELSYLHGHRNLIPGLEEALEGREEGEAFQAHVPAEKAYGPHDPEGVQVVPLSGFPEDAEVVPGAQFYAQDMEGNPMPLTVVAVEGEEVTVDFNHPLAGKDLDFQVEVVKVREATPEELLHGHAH
TtSlyDFL H119A, sequence (Q5SLE7 entry or part of it H119A): as the sequence (Q5SLE7 entry or part of it A78G) above, with G78A, H119A counted along it
TtSlyDFL Y92A, sequence (Q5SLE7 entry or part of it Y92A): as the sequence (Q5SLE7 entry or part of it A78G) above, with G78A, Y92A counted along it
TtSlyDFL Q94A, sequence (Q5SLE7 entry or part of it Q94A): as the sequence (Q5SLE7 entry or part of it A78G) above, with G78A, Q94A counted along it
TtSlyDFL M96A, sequence (Q5SLE7 entry or part of it M96A): as the sequence (Q5SLE7 entry or part of it A78G) above, with G78A, M96A counted along it
TtSlyDFL D23A, sequence (Q5SLE7 entry or part of it D23A): as the sequence (Q5SLE7 entry or part of it A78G) above, with D23A, G78A counted along it
TtSlyDFL F128A, sequence (Q5SLE7 entry or part of it F128A): as the sequence (Q5SLE7 entry or part of it A78G) above, with G78A, F128A counted along it
TtSlyDFL I37G, sequence (Q5SLE7 entry or part of it I37G): as the sequence (Q5SLE7 entry or part of it A78G) above, with I37G, G78A counted along it
TtSlyDFL Y63F, sequence (Q5SLE7 entry or part of it Y63F): as the sequence (Q5SLE7 entry or part of it A78G) above, with Y63F, G78A counted along it
TtSlyDFL Y63A, sequence (Q5SLE7 entry or part of it Y63A): as the sequence (Q5SLE7 entry or part of it A78G) above, with Y63A, G78A counted along it
TtSlyDFL N35A, sequence (Q5SLE7 entry or part of it N35A): as the sequence (Q5SLE7 entry or part of it A78G) above, with N35A, G78A counted along it
TtSlyDFL Y13F, sequence (Q5SLE7 entry or part of it Y13F): as the sequence (Q5SLE7 entry or part of it A78G) above, with Y13F, G78A counted along it

In the case of “succinyl-Ala-Leu-Pro-Phe-4-nitroanilide [suc-ALPF-pNA]”, the “Activity (kcat/KM)” value (TtSlyDFL A78G; [1]) is reported as 0.76 ± 0.14 10^6 M/s, the Relative activity (TtSlyDFL A78G; [2]) is reported as 52% and the “Activity (kcat/KM)” value (TtSlyDFL F128A; [1]) is reported as 0.52 ± 0.16 10^6 M/s. The Relative activity (TtSlyDFL F128A; [2]) was 35%, the kcat (human FKBP12) was “above 10,000 s^−1” and the “Activity (kcat/KM)” value (TtSlyDFL N35A; [1]) was 1.04 ± 0.28 10^6 M/s. For the same substance, the Relative activity (TtSlyDFL N35A; [2]) was 71%, the “Activity (kcat/KM)” value (TtSlyDFL I37G; [1]) was 0.73 ± 0.12 10^6 M/s and the Relative activity (TtSlyDFL I37G; [2]) was 50%. For the same substance, the “Activity (kcat/KM)” value (TtSlyDFL D23A; [1]) was 1.15 ± 0.21 10^6 M/s, the Relative activity (TtSlyDFL D23A; [2]) was 78% and the “Activity (kcat/KM)” value (TtSlyDFL M96A; [1]) was 0.58 ± 0.15 10^6 M/s. The Relative activity (TtSlyDFL M96A; [2]) was 39%, the Kd (E. coli SlyD) was about 44 µM and the “Activity (kcat/KM)” value (TtSlyDFL Y63A; [1]) was 0.31 ± 0.19 10^6 M/s. The Relative activity (TtSlyDFL Y63A; [2]) was 21%, the “Activity (kcat/KM)” value (TtSlyDFL Q94A; [1]) was 1.44 ± 0.49 10^6 M/s and the Relative activity (TtSlyDFL Q94A; [2]) was 98%. The kcat/KM (TtSlyDΔIF; 500 μM suc-ALPF-pNA, enzyme concentration varied, linear regression, 25 °C) was 0.85 ± 0.01 10^6 M^−1s^−1, the “Activity (kcat/KM)” value (TtSlyDΔIF; [1]) was 0.85 ± 0.01 10^6 M^-1 s^-1 and the kcat/KM (TtSlyDΔIF; suc-ALPF-pNA as substrate, NMR lineshape analysis, 25 °C) was 0.85 ± 0.01 µM⁻¹ s⁻¹. The Relative activity (TtSlyDΔIF; [2]) was 58%, the kcat (TtSlyDFL; TtSlyD, suc-ALPF-pNA tetrapeptide as substrate) was > 10,000 s^−1 and the kcat/KM (TtSlyDFL; TtSlyDFL, 500 μM suc-ALPF-pNA, enzyme concentration varied, linear regression, 25 °C) was 1.47 ± 0.05 10^6 M^−1s^−1 and 1.5 10^6 M^−1s^−1. The “Activity (kcat/KM)” value (TtSlyDFL; wild-type TtSlyDFL, substrate 500 μM suc-ALPF-pNA, NMR lineshape analysis, 25 °C) was 1.47 ± 0.05 10^6 M^-1 s^-1, the kcat/KM (TtSlyDFL; wild-type TtSlyDFL, suc-ALPF-pNA as substrate, NMR lineshape analysis, equilibrium conditions, 25 °C) was 1.47 ± 0.05 µM⁻¹ s⁻¹ and the Relative activity (TtSlyDFL; wild-type TtSlyDFL, suc-ALPF-pNA, reference) was 100%. For the same substance, the “Activity (kcat/KM)” value (TtSlyDFL H119A; [1]) was 1.23 ± 0.02 10^6 M/s, the Relative activity (TtSlyDFL H119A; [2]) was 84% and the “Activity (kcat/KM)” value (TtSlyDFL Y63F; [1]) was 1.12 ± 0.11 10^6 M/s. The Relative activity (TtSlyDFL Y63F; [2]) was 76%, the “Activity (kcat/KM)” value (TtSlyDFL Y13F; [1]) was 1.35 ± 0.17 10^6 M/s and the Relative activity (TtSlyDFL Y13F; [2]) was 92%. The “Activity (kcat/KM)” value (TtSlyDFL Y92A; [1]) was 0.53 ± 0.12 10^6 M/s and the Relative activity (TtSlyDFL Y92A; [2]) was 36%.
